Assay results taken from ChEMBL document CHEMBL1201862, “PubChem BioAssay data set” (2004).
The source made the active and inactive calls.

Legend:
CAAX prenyl protease 2 [1] = target: CAAX prenyl protease 2 (Saccharomyces cerevisiae S288c, UniProt Q03530); format: biochemical
Trypsin = Trypsin (Sus scrofa, UniProt P00761); assay: trypsin protease activity blockade – biochemical, quenched peptide fluorescence, cherry-pick, selectivity assay for Rce1 protease inhibitor project, dose response (AID 488789)
Sequence of Trypsin (P00761 whole entry): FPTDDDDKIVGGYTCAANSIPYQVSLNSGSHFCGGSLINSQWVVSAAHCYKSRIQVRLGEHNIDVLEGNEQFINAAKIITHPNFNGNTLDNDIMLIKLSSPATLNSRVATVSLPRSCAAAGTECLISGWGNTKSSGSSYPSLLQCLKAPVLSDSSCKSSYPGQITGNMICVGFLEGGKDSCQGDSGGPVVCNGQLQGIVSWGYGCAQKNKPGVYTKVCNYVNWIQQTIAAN

CAAX prenyl protease 2 [2] = target: CAAX prenyl protease 2 (Homo sapiens, UniProt Q9Y256); assay: inhibition of Ras-converting CAAX protease Rce1 – biochemical, yeast membranes, quenched-peptide fluorescence, cherry-pick, dose response (AID 588849)
Sequence of CAAX prenyl protease 2 (Homo sapiens, UniProt Q9Y256) (Q9Y256 whole entry): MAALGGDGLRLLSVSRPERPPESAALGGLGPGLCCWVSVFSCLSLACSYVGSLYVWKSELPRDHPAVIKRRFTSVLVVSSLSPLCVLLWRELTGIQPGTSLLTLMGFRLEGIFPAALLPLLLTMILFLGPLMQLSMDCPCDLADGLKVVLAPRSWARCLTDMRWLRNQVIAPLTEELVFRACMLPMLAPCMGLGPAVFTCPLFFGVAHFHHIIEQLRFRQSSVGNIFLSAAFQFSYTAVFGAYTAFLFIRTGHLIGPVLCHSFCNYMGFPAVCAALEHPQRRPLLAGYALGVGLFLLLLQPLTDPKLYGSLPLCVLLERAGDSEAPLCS

CAAX prenyl protease 1 = CAAX prenyl protease 1 (Saccharomyces cerevisiae S288c, UniProt P47154); assay: yeast CAAX protease Ste24 inhibition – biochemical, S. cerevisiae, plate reader, cherry-pick, dose response (AID 488815)
Sequence of CAAX prenyl protease 1 (P47154 whole entry): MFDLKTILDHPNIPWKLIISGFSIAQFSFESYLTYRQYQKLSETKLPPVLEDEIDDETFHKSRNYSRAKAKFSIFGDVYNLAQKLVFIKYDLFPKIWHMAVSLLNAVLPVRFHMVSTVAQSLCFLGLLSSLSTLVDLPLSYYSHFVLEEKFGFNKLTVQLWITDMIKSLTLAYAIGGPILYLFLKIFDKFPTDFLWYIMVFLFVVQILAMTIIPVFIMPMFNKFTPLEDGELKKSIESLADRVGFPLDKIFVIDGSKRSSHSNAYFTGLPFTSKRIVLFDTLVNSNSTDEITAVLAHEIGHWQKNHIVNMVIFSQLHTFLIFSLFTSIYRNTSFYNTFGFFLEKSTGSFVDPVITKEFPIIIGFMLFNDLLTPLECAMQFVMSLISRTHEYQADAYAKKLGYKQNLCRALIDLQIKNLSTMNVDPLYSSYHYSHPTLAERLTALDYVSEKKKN

HEK293 [3] = assay: cells; format: functional, cell-based; conditions: Homo sapiens
HEK293 [4] = assay: inhibition of NOD1-driven NF-kB reporter – cell-based, luminescence, uHTS, primary screen (AID 1578); format: functional; conditions: Homo sapiens
[5] = target: Nucleotide-binding oligomerization domain-containing protein 2 (Homo sapiens, UniProt Q9HC29); assay: inhibition of NOD2-driven NF-kB reporter – cell-based, luminescence, uHTS, HEK293 (AID 1566); format: functional
Sequence of Nucleotide-binding oligomerization domain-containing protein 2 (Q9HC29 whole entry, the tested form may be a part): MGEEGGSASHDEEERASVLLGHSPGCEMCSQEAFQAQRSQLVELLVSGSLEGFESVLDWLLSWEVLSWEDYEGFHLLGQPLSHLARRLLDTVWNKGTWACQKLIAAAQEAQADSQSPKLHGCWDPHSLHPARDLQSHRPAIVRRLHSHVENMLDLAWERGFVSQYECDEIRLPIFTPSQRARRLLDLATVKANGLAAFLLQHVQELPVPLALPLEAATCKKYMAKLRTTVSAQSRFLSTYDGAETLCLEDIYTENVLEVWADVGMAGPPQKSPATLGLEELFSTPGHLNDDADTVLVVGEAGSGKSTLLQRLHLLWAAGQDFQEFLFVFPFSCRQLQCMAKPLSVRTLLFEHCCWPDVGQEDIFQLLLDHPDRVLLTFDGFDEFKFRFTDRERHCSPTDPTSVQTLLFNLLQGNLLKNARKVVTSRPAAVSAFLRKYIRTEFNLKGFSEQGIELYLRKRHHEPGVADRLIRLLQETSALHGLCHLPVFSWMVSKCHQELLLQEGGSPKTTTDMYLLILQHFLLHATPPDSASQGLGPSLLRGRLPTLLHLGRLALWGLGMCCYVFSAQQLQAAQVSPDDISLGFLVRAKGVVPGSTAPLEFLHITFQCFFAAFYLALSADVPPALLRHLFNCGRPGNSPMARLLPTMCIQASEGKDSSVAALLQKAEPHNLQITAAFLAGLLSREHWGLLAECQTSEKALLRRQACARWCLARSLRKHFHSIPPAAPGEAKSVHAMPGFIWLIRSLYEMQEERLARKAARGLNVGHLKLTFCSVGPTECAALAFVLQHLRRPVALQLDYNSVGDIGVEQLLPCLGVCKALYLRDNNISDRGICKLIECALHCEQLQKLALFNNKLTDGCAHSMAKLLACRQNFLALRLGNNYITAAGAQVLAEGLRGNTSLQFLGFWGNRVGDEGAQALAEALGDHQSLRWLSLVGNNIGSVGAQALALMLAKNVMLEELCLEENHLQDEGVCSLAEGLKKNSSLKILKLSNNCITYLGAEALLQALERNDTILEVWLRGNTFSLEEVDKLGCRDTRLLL

HEK293 [6] = assay: NOD2 signaling inhibitors in MDP-stimulated cells, cell-based, uHTS, luminescence (AID 2001); format: functional; conditions: Homo sapiens
HEK293 [7] = assay: cells; format: functional, cell-based; conditions: Homo sapiens; remark: listed apart in the source
HEK293 [8] = assay: cells; format: functional, cell-based; conditions: Homo sapiens; remark: listed apart in the source

Sequence of CAAX prenyl protease 2 (Saccharomyces cerevisiae S288c, UniProt Q03530) (Q03530 whole entry): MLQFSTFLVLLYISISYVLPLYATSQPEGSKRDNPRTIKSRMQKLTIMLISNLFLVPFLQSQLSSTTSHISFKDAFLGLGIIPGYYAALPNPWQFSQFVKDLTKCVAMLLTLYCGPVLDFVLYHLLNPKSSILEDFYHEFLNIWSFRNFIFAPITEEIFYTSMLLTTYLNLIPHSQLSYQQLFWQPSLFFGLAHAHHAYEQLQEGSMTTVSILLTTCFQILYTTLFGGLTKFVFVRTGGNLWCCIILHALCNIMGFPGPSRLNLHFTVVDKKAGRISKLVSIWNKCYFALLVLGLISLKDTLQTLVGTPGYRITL

Row | AC50 (CAAX prenyl protease 2 [1]) | AC50 (Trypsin) | AC50 (CAAX prenyl protease 2 [2]) | AC50 (CAAX prenyl protease 1) | Structure (SMILES) | IC50 (HEK293 [3]) | EC50 (HEK293 [4]) | EC50 [5] | IC50 (HEK293 [6]) | IC50 (HEK293 [7]) | IC50 (HEK293 [8])
1 | 28.7 µM (active) | 15.3 µM (active) | 8.22 µM (active) | 3.46 µM (active) | Nc1nc(N2CCN(C(=O)c3ccco3)CC2)nc2ccccc12 | – | – | – | – | – | –
2 | – | – | – | – | CC(=O)c1ccc(Nc2nc3ccccc3nc2NS(=O)(=O)c2cccs2)cc1 | 15.6 µM (active) | 8.18 µM (active) | 6.47 µM (active) | 9.59 µM (active) | > 20 µM (inactive) | > 20 µM (inactive)
